Data from patent US20060188938A1, “Compounds for inhibiting beta-amyloid production and methods of identifying the compounds” (priority 2005, published 2006).

Legend:
[1] = test system: β-amyloid production by 7W WT APP751 CHO cells; experiment: Screening of NF-kB activation inhibitors, Aβ1-40 and Aβ1-42 ELISA (Example 3); format: cell-based, Chinese hamster; conditions: 24 hours (FIG. 6)
Procedure: Most of the compounds screened can be obtained as Calbiochem products from EMD Biosciences, Inc., La Jolla, Calif. R—and S-Niguldipine are available e.g., from Tocris Cookson Inc., Ellisville, Mo. CAPE and Artemisinin are available, e.g., as a Sigma product from Sigma-Aldrich Corp., St. Louis, Mo.
Each compound was dissolved in DMSO. 7W WT APP751 CHO cells overexpressing APP751 were plated into 96-well culture plates in 200 μL of culture medium. Each compound from the library was added to confluent cells to a final concentration of 500 nM, 1 μM, 5 μM, 10 μM and/or 30 μM. After 24 hours of treatment, culture medium was collected and dissolved 10-fold and 2-fold for measuring the level of Aβ1-40 and Aβ1-42, respectively. Aβ1-40 and Aβ1-42 were determined using commercially available ELISAs (Biosource, CA), following the recommendations of the manufacturer.

[2] = test system: β-amyloid production by 7W WT APP751 CHO cells; experiment: Screening of dihydropyridine compounds (Maybridge), Aβ1-40 and Aβ1-42 ELISA (Example 2); format: cell-based, Chinese hamster; conditions: 30 μM, 24 hours (FIGS. 5A-B)
Procedure: Dihydropyridine compounds were obtained from Maybridge (England). Each compound was dissolved in DMSO. 7W WT APP751 CHO cells overexpressing APP751 were plated into 96-well culture plates in 200 μL of culture medium. Each compound from the library was added to confluent cells to a final concentration of 30 μM. After 24 hours of treatment, culture medium was collected and dissolved 10-fold and 2-fold for measuring the level of Aβ1-40 and Aβ1-42, respectively. Aβ1-40 and Aβ1-42 were determined using commercially available ELISAs (Biosource, CA), following the recommendations of the manufacturer.

SMILES | concentration of Aβ1-40 compared to controls ([1]; 5 μM) | concentration of Aβ1-42 compared to controls ([1]; 5 μM) | concentration of total β-amyloid compared to controls ([1]; 5 μM) | concentration of Aβ1-40 compared to controls [2] | concentration of Aβ1-42 compared to controls [2] | concentration of total β-amyloid (Aβ1-40+Aβ1-42) compared to controls [2] | further results
Nc1ccc2ncnc(NCCc3ccc(Oc4ccccc4)cc3)c2c1 [6-amino-4-(4-phenoxyphenylethylamino)quinazoline] | significantly decreased | significantly decreased | significantly decreased | – | – | – | concentration of Aβ1-40 compared to controls ([1]; 500 nM): significantly decreased; concentration of Aβ1-42 compared to controls ([1]; 500 nM): significantly decreased; concentration of total β-amyloid compared to controls ([1]; 500 nM): significantly decreased
COC(=O)C1=C(C)NC(C)=C(C(=O)OCCCN2CCC(c3ccccc3)(c3ccccc3)CC2)[C@H]1c1cccc([N+](=O)[O-])c1.Cl [(S)-(+)-niguldipine] | significantly decreased | significantly decreased | significantly decreased | – | – | – | concentration of Aβ1-40 compared to controls ([1]; 1 μM): significantly decreased; concentration of Aβ1-42 compared to controls ([1]; 1 μM): significantly decreased; concentration of total β-amyloid compared to controls ([1]; 1 μM): significantly decreased; concentration of Aβ1-40 compared to controls ([1]; 30 μM): significantly decreased; concentration of Aβ1-42 compared to controls ([1]; 30 μM): significantly decreased; concentration of total β-amyloid compared to controls ([1]; 30 μM): significantly decreased
CCOC(=O)C1=C(C)NC(C)=C(C(=O)OCC)C1c1ccccc1Cl [Example 6, Diethyl 4-(2-chlorophenyl)-1,4-dihydro-2,6-dimethylpyridine-3,5-dicarboxylate] | – | – | – | – | – | – | melting point: 120 to 121 °C
NC(=O)Nc1sc(-c2ccc(F)cc2)cc1C(N)=O [IKK-2 Inhibitor IV] | significantly decreased | significantly decreased | significantly decreased | – | – | – | concentration of Aβ1-40 compared to controls ([1]; 500 nM): significantly decreased; concentration of Aβ1-42 compared to controls ([1]; 500 nM): significantly decreased; concentration of total β-amyloid compared to controls ([1]; 500 nM): significantly decreased
COC(=O)C1=C(C)NC(C)=C(C(=O)OC)C1c1ccc(Cl)c(Cl)c1 [JFD 03293, dimethyl 4-(3,4-dichlorophenyl)-2,6-dimethyl-1,4-dihydropyridine-3,5-dicarboxylate] | – | – | – | significantly decreased | significantly decreased | significantly decreased | –
CCOC(=O)C1=C(C)NC(C)=C(C(=O)OCC)C1c1ccc(Cl)c(Cl)c1 [JFD 03294, diethyl 4-(3,4-dichlorophenyl)-2,6-dimethyl-1,4-dihydropyridine-3,5-dicarboxylate] | – | – | – | significantly decreased | significantly decreased | significantly decreased | –
CCOC(=O)C1=C(C)NC(C)=C(C(=O)OCC)C1c1ccccc1Cl [JFD 03305, diethyl 4-(2-chlorophenyl)-2,6-dimethyl-1,4-dihydropyridine-3,5-dicarboxylate] | – | – | – | significantly decreased | significantly decreased | significantly decreased | –
CCOC(=O)C1=C(C)NC(C)=C(C(=O)OCC)C1c1ccccc1[N+](=O)[O-] [JFD 03311, diethyl 2,6-dimethyl-4-(2-nitrophenyl)-1,4-dihydropyridine-3,5-dicarboxylate] | – | – | – | significantly decreased | – | significantly decreased | –
CCOC(=O)C1=C(C)NC(C)=C(C(=O)OCC)C1c1ccc(F)cc1 [JFD 03318, diethyl 4-(4-fluorophenyl)-2,6-dimethyl-1,4-dihydropyridine-3,5-dicarboxylate] | – | – | – | significantly decreased | significantly decreased | significantly decreased | –
O=C1CC(c2ccccc2)CC(=O)N1c1ccc(Oc2ccc(Cl)cc2)cc1 [PD 00463, 1-[4-(4-chlorophenoxy)phenyl]-4-phenyldihydropyridine-2,6(1H,3H)-dione] | – | – | – | significantly decreased | significantly decreased | significantly decreased | –
COC(=O)C1=C(C)NC(C)=C(C(=O)OCCCN2CCC(c3ccccc3)(c3ccccc3)CC2)[C@@H]1c1cccc([N+](=O)[O-])c1.Cl [R-niguldipine] | significantly decreased | significantly decreased | significantly decreased | – | – | – | concentration of Aβ1-40 compared to controls ([1]; 1 μM): significantly decreased; concentration of Aβ1-42 compared to controls ([1]; 1 μM): significantly decreased; concentration of total β-amyloid compared to controls ([1]; 1 μM): significantly decreased; concentration of Aβ1-40 compared to controls ([1]; 30 μM): significantly decreased; concentration of Aβ1-42 compared to controls ([1]; 30 μM): significantly decreased; concentration of total β-amyloid compared to controls ([1]; 30 μM): significantly decreased
CCOC(=O)C1=C(C)NC(C)=C(C(=O)OCC)C1c1ccc(Cl)cc1Cl [RJC 03403, diethyl 4-(2,4-dichlorophenyl)-2,6-dimethyl-1,4-dihydro-3,5-pyridinedicarboxylate] | – | – | – | significantly decreased | significantly decreased | significantly decreased | –
CCOC(=O)C1=C(C)NC(C)=C(C(=O)OCC)C1c1ccc(-c2ccccc2C(F)(F)F)o1 [RJC 03405, diethyl 2,6-dimethyl-4-{5-[2-(trifluoromethyl)phenyl]-2-furyl}-1,4-dihydro-3,5-pyridinedicarboxylate] | – | – | – | significantly decreased | – | significantly decreased | –
CCOC(=O)C1=C(C)NC(C)=C(C(=O)OCC)C1c1ccc(OC)cc1Cl [RJC 03413, diethyl 4-(2-chloro-4-methoxyphenyl)-2,6-dimethyl-1,4-dihydro-3,5-pyridinedicarboxylate] | – | – | – | significantly decreased | – | significantly decreased | –
COC(=O)C1=C(C)NC(C)=C(C(=O)OC)C1c1ccc(Cl)cc1Cl [RJC 03423, dimethyl 4-(2,4-dichlorophenyl)-2,6-dimethyl-1,4-dihydro-3,5-pyridinedicarboxylate] | – | – | – | significantly decreased | significantly decreased | significantly decreased | –
COC(=O)C1=C(C)NC(C)=C(C(=O)OC)C1c1ccc(-c2ccsc2C(=O)OC)o1 [SEW 02070, dimethyl 4-{5-[2-(methoxycarbonyl)-3-thienyl]-2-furyl}-2,6-dimethyl-1,4-dihydropyridine-3,5-dicarboxylate] | – | – | – | significantly decreased | – | significantly decreased | –
CCOC(=O)C1=C(C)NC(C)=C(C(=O)OCC)C1c1cccc([N+](=O)[O-])c1 [XBX 00343, diethyl 2,6-dimethyl-4-(3-nitrophenyl)-1,4-dihydropyridine-3,5-dicarboxylate] | – | – | – | significantly decreased | – | significantly decreased | –
CC1=C(O)C(=O)C=C2C1=CC=C1[C@@]2(C)CC[C@@]2(C)[C@@H]3C[C@](C)(C(=O)O)CC[C@]3(C)CC[C@]12C [celastrol] | significantly decreased | significantly decreased | significantly decreased | – | – | – | concentration of Aβ1-40 compared to controls ([1]; 500 nM): significantly decreased; concentration of Aβ1-42 compared to controls ([1]; 500 nM): significantly decreased; concentration of total β-amyloid compared to controls ([1]; 500 nM): significantly decreased
C=C1C(=O)O[C@@H]2C[C@@]3(C)CCCC(=C)[C@@H]3C[C@H]12 [isohelenin] | significantly decreased | significantly decreased | significantly decreased | – | – | – | concentration of Aβ1-40 compared to controls ([1]; 10 μM): significantly decreased; concentration of Aβ1-42 compared to controls ([1]; 10 μM): significantly decreased; concentration of total β-amyloid compared to controls ([1]; 10 μM): significantly decreased
C=C1C(=O)[C@@]23[C@H](O)C[C@@H]4C(C)(C)CC[C@H](O)[C@@]4(CO)[C@@H]2CC[C@@H]1[C@H]3O [kamebakaurin] | – | – | – | – | – | – | concentration of Aβ1-40 compared to controls ([1]; 10 μM): significantly decreased; concentration of Aβ1-42 compared to controls ([1]; 10 μM): significantly decreased; concentration of total β-amyloid compared to controls ([1]; 10 μM): significantly decreased; concentration of Aβ1-40 compared to controls ([1]; 30 μM): significantly decreased; concentration of Aβ1-42 compared to controls ([1]; 30 μM): significantly decreased; concentration of total β-amyloid compared to controls ([1]; 30 μM): significantly decreased
